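In this assay, cells in 96-well plates receive the compound at five concentrations for 48 hours. Endpoints are linearly interpolated between the surrounding concentrations. GI50 = concentration required for 50% inhibition of growth. TGI: concentration producing complete growth inhibition.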
Experiments:
Assay in all cases: NCI anticancer screen, dose series, 48 h
786-0 renal = system: 786-0 renal
A498 renal = system: A498 renal
A549 NSCLC = system: A549 NSCLC
ACHN renal = system: ACHN renal
BT-549 breast = system: BT-549 breast
CAKI-1 renal = system: CAKI-1 renal
CCRF-CEM leukemia = system: CCRF-CEM leukemia
COLO 205 colon = system: COLO 205 colon
DU-145 prostate = system: DU-145 prostate
EKVX NSCLC = system: EKVX NSCLC
HCC-2998 colon = system: HCC-2998 colon
HCT-116 colon = system: HCT-116 colon
HCT-15 colon = system: HCT-15 colon
HL-60(TB) leukemia = system: HL-60(TB) leukemia
HOP-62 NSCLC = system: HOP-62 NSCLC
HOP-92 NSCLC = system: HOP-92 NSCLC
HS 578T breast = system: HS 578T breast
HT29 colon = system: HT29 colon
IGROV1 ovarian = system: IGROV1 ovarian
KM12 colon = system: KM12 colon
LOX IMVI melanoma = system: LOX IMVI melanoma
MALME-3M melanoma = system: MALME-3M melanoma
MCF7 breast = system: MCF7 breast
MDA-MB-231 breast = system: MDA-MB-231 breast
MDA-MB-435 = system: MDA-MB-435
MOLT-4 leukemia = system: MOLT-4 leukemia
NCI-H226 lung = system: NCI-H226 lung
NCI-H23 lung = system: NCI-H23 lung
NCI-H460 lung = system: NCI-H460 lung
NCI-H522 lung = system: NCI-H522 lung
NCI/ADR-RES ovarian = system: NCI/ADR-RES ovarian
OVCAR-3 ovarian = system: OVCAR-3 ovarian
OVCAR-4 ovarian = system: OVCAR-4 ovarian
OVCAR-5 ovarian = system: OVCAR-5 ovarian
OVCAR-8 ovarian = system: OVCAR-8 ovarian
PC-3 prostate = system: PC-3 prostate
RPMI-8226 leukemia = system: RPMI-8226 leukemia
RXF 393 renal = system: RXF 393 renal
SF-268 CNS = system: SF-268 CNS
SF-295 CNS = system: SF-295 CNS
SF-539 CNS = system: SF-539 CNS
SK-MEL-2 melanoma = system: SK-MEL-2 melanoma
SK-MEL-28 melanoma = system: SK-MEL-28 melanoma
SK-MEL-5 melanoma = system: SK-MEL-5 melanoma
SK-OV-3 ovarian = system: SK-OV-3 ovarian
SN12C renal = system: SN12C renal
SNB-19 CNS = system: SNB-19 CNS
SNB-75 CNS = system: SNB-75 CNS
SR leukemia = system: SR leukemia
SW-620 colon = system: SW-620 colon
T-47D breast = system: T-47D breast
TK-10 renal = system: TK-10 renal
U251 CNS = system: U251 CNS
UACC-257 melanoma = system: UACC-257 melanoma
UACC-62 melanoma = system: UACC-62 melanoma
UO-31 renal = system: UO-31 renal

## O=C(Cc1ccc(/C=C/C(=O)c2ncc[nH]2)cc1)Nc1ccc(Cl)cc1
786-0 renal
  GI50: 1.13 µM
  TGI: 4.77 µM
A498 renal
  GI50: 5.48 µM
  TGI: 13 µM
A549 NSCLC
  GI50: 6.9 µM
  TGI: > 25 µM
ACHN renal
  GI50: 4.04 µM
  TGI: 7.66 µM
BT-549 breast
  GI50: 3.46 µM
  TGI: 11.2 µM
CAKI-1 renal
  GI50: 4.88 µM
  TGI: 15.4 µM
CCRF-CEM leukemia
  GI50: 1.08 µM
  TGI: > 25 µM
COLO 205 colon
  GI50: 3.01 µM
  TGI: 7.42 µM
DU-145 prostate
  GI50: 1.7 µM
  TGI: 7.39 µM
EKVX NSCLC
  GI50: 5.68 µM
  TGI: 20.2 µM
HCC-2998 colon
  GI50: 3.73 µM
  TGI: 7.48 µM
HCT-116 colon
  GI50: 0.848 µM
  TGI: 3.41 µM
HCT-15 colon
  GI50: 0.879 µM
  TGI: 5.99 µM
HL-60(TB) leukemia
  GI50: 3.8 µM
  TGI: 21.8 µM
HOP-62 NSCLC
  GI50: 3.19 µM
  TGI: 8.78 µM
HOP-92 NSCLC
  GI50: 5.74 µM
  TGI: 20.9 µM
HS 578T breast
  GI50: 18.8 µM
  TGI: > 25 µM
HT29 colon
  GI50: 0.886 µM
  TGI: 2.96 µM
IGROV1 ovarian
  GI50: 3.59 µM
  TGI: 15.4 µM
KM12 colon
  GI50: 1.3 µM
  TGI: 5.23 µM
LOX IMVI melanoma
  GI50: 0.87 µM
  TGI: 3.48 µM
MALME-3M melanoma
  GI50: 6.24 µM
  TGI: 18.5 µM
MCF7 breast
  GI50: 0.741 µM
  TGI: 4.73 µM
MDA-MB-231 breast
  GI50: 4.27 µM
  TGI: 14.9 µM
MDA-MB-435
  GI50: 4.14 µM
  TGI: > 25 µM
MOLT-4 leukemia
  GI50: 1.8 µM
  TGI: 24.2 µM
NCI-H226 lung
  GI50: 7.5 µM
  TGI: > 25 µM
NCI-H23 lung
  GI50: 2.97 µM
  TGI: 11.5 µM
NCI-H460 lung
  GI50: 3.43 µM
  TGI: > 25 µM
NCI-H522 lung
  GI50: 2.6 µM
  TGI: 7.23 µM
NCI/ADR-RES ovarian
  GI50: 5.02 µM
  TGI: > 25 µM
OVCAR-3 ovarian
  GI50: 1.14 µM
  TGI: 4.29 µM
OVCAR-4 ovarian
  GI50: 4.11 µM
  TGI: > 25 µM
OVCAR-5 ovarian
  GI50: 3.3 µM
  TGI: 7.78 µM
OVCAR-8 ovarian
  GI50: 3.65 µM
  TGI: 16 µM
PC-3 prostate
  GI50: 2.39 µM
  TGI: 7.45 µM
RPMI-8226 leukemia
  GI50: 0.857 µM
  TGI: 3.92 µM
RXF 393 renal
  GI50: 3.05 µM
  TGI: 6.93 µM
SF-268 CNS
  GI50: 1.65 µM
  TGI: > 25 µM
SF-295 CNS
  GI50: 3.33 µM
  TGI: 9.32 µM
SF-539 CNS
  GI50: 3.33 µM
  TGI: 7.03 µM
SK-MEL-2 melanoma
  GI50: 5.53 µM
  TGI: 14.6 µM
SK-MEL-28 melanoma
  GI50: 4.81 µM
  TGI: 11.7 µM
SK-MEL-5 melanoma
  GI50: 6.16 µM
  TGI: 17.4 µM
SK-OV-3 ovarian
  GI50: 9.74 µM
  TGI: > 25 µM
SN12C renal
  GI50: 2.4 µM
  TGI: 6.91 µM
SNB-19 CNS
  GI50: 2.32 µM
  TGI: 6.73 µM
SNB-75 CNS
  GI50: 3.63 µM
  TGI: > 25 µM
SR leukemia
  GI50: 0.798 µM
  TGI: > 25 µM
SW-620 colon
  GI50: 1.43 µM
  TGI: > 25 µM
T-47D breast
  GI50: 3.24 µM
  TGI: 16.2 µM
TK-10 renal
  GI50: 5.41 µM
  TGI: 13.9 µM
U251 CNS
  GI50: 1.02 µM
  TGI: 3.49 µM
UACC-257 melanoma
  GI50: 7.24 µM
  TGI: 19 µM
UACC-62 melanoma
  GI50: 3.94 µM
  TGI: 9.48 µM
UO-31 renal
  GI50: 1.69 µM
  TGI: 5.11 µM

— PubChem BioAssay (NCI)
